Assay results from PubChem BioAssay AID330 (DTP/NCI, 2004).
Where “and” joins values, the source holds several entries; their conditions need not be identical. Equal entries are not always repeated. Toxic doses and inconclusive results are not listed. Rule for the calls: active = survival T/C of 150% or more; inactive = T/C below 125% in these data.

System: P388 leukemia ip, CD2F1 mice, survival T/C
Assay: NCI In Vivo Anticancer Drug Screen. Data for tumor model P388 Leukemia (intraperitoneal) in CD2F1 (CDF1) mice
Conditions: endpoint: median survival time, higher = longer survival
How it was run: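 Mice carrying the transplanted tumor received test compound or vehicle. Survival was recorded in each group, and the value is the treated-group measurement divided by that of the vehicle-treated control group.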

[1] = dose: 25.0 mg/kg/injection, schedule: Q01DX009 (ip), vehicle: saline with Tween-80
[2] = dose: 50.0 mg/kg/injection, schedule: Q01DX009 (ip), vehicle: saline with Tween-80
[3] = dose: 100.0 mg/kg/injection, schedule: Q01DX009 (ip), vehicle: saline with Tween-80
[4] = dose: 200.0 mg/kg/injection, schedule: Q01DX009 (ip), vehicle: saline with Tween-80
[5] = dose: 60.0 mg/kg/injection, schedule: Q01DX005 (ip), vehicle: saline with Tween-80
[6] = dose: 120.0 mg/kg/injection, schedule: Q01DX005 (ip), vehicle: saline with Tween-80
[7] = dose: 240.0 mg/kg/injection, schedule: Q01DX005 (ip), vehicle: saline with Tween-80
[8] = dose: 12.5 mg/kg/injection, schedule: Q01DX009 (ip), vehicle: distilled water + Tween-80
[9] = dose: 25.0 mg/kg/injection, schedule: Q01DX009 (ip), vehicle: distilled water + Tween-80
[10] = dose: 50.0 mg/kg/injection, schedule: Q01DX009 (ip), vehicle: distilled water + Tween-80
[11] = dose: 50.0 mg/kg/injection, schedule: Q01DX009 (ip), vehicle: saline
[12] = dose: 100.0 mg/kg/injection, schedule: Q01DX009 (ip), vehicle: saline
[13] = dose: 200.0 mg/kg/injection, schedule: Q01DX009 (ip), vehicle: saline
[14] = dose: 12.5 mg/kg/injection, schedule: Q01DX009 (ip), vehicle: Klucel (hydroxypropylcellulose) (HPC)
[15] = dose: 50.0 mg/kg/injection, schedule: Q01DX005 (ip), vehicle: saline with Tween-80
[16] = dose: 100.0 mg/kg/injection, schedule: Q01DX005 (ip), vehicle: saline with Tween-80
[17] = dose: 200.0 mg/kg/injection, schedule: Q01DX005 (ip), vehicle: saline with Tween-80

Measured: T/C

O=C1C=CC(=O)N1c1ccc(Br)cc1Cl
inactive: dose: 1.0 mg/kg/injection, schedule: Q01DX009 (ip), vehicle: saline 104 % of control | dose: 1.8 mg/kg/injection, schedule: Q04DX003 (ip), vehicle: saline 113 % of control | dose: 2.0 mg/kg/injection, schedule: Q01DX009 (ip), vehicle: saline 109 % of control | dose: 2.6 mg/kg/injection, schedule: Q04DX003 (ip), vehicle: saline 109 % of control | dose: 4.0 mg/kg/injection, schedule: Q01DX009 (ip), vehicle: saline 113 % of control | dose: 4.0 mg/kg/injection, schedule: Q04DX003 (ip), vehicle: saline 113 % of control | dose: 6.0 mg/kg/injection, schedule: Q04DX003 (ip), vehicle: saline 118 % of control

CC(C)=CCC/C(C)=C\CCl
inactive: [1] 107 % of control | [2] 98 % of control | [3] 87 % of control | [4] 90 % of control

Cc1c[nH]c(=O)cn1
inactive: dose: 100.0 mg/kg/injection, schedule: Q04DX003 (ip), vehicle: Klucel (hydroxypropylcellulose) (HPC) 95 % of control | dose: 200.0 mg/kg/injection, schedule: Q04DX003 (ip), vehicle: Klucel (hydroxypropylcellulose) (HPC) 90 % of control | dose: 400.0 mg/kg/injection, schedule: Q04DX003 (ip), vehicle: Klucel (hydroxypropylcellulose) (HPC) 95 % of control

CC1=C(C(N)=O)C(c2ccc(O)cc2)NC(=S)N1 (configuration not stated)
inactive: dose: 60.0 mg/kg/injection, schedule: Q01DX005 (ip), vehicle: Klucel (hydroxypropylcellulose) (HPC) 101 % of control | dose: 120.0 mg/kg/injection, schedule: Q01DX005 (ip), vehicle: Klucel (hydroxypropylcellulose) (HPC) 101 % of control | dose: 240.0 mg/kg/injection, schedule: Q01DX005 (ip), vehicle: Klucel (hydroxypropylcellulose) (HPC) 101 % of control

O/N=C/C(=Nc1ccccc1N=C(/C=N/O)NO)NO
inactive: [5] 95 % of control | [6] 103 % of control | [7] 94 % of control

O=C(Nc1ccc([N+](=O)[O-])cc1)Nc1nccs1
inactive: [8] 108 % of control and 112 % of control and 115 % of control | [9] 120 % of control | [10] 119 % of control

COc1ccc(C(O)C2c3cc4c(cc3CCN2C)OCO4)c(CO)c1OC (configuration not stated)
inactive: dose: 25.0 mg/kg/injection, schedule: Q01DX001 (ip), vehicle: saline + alcohol 88 % of control | dose: 50.0 mg/kg/injection, schedule: Q01DX001 (ip), vehicle: saline + alcohol 95 % of control | dose: 100.0 mg/kg/injection, schedule: Q01DX001 (ip), vehicle: saline + alcohol 104 % of control

COc1cc(CNc2cccc(F)c2)cc(OC)c1OC
inactive: dose: 50.0 mg/kg/injection, schedule: Q01DX005 (ip), vehicle: Klucel (hydroxypropylcellulose) (HPC) 100 % of control | dose: 100.0 mg/kg/injection, schedule: Q01DX005 (ip), vehicle: Klucel (hydroxypropylcellulose) (HPC) 110 % of control | dose: 200.0 mg/kg/injection, schedule: Q01DX005 (ip), vehicle: Klucel (hydroxypropylcellulose) (HPC) 89 % of control

COc1cc(C(=O)OC(C)CC2(c3ccccc3)C(=O)NC(=O)NC2=O)cc(OC)c1OC (configuration not stated)
inactive: [2] 90 % of control | [3] 90 % of control

CC(C)OC1CC(C)(O)Cc2cc3c(c(O)c21)C(=O)c1c(O)cc2c(c1C3=O)OC1OC2(C)C(O)C(N(C)C)C1O (configuration not stated)
inactive: dose: 2.0 mg/kg/injection, schedule: Q01DX009 (ip), vehicle: other 101 % of control | dose: 4.0 mg/kg/injection, schedule: Q01DX009 (ip), vehicle: other 120 % of control | dose: 8.0 mg/kg/injection, schedule: Q01DX009 (ip), vehicle: other 106 % of control | dose: 16.0 mg/kg/injection, schedule: Q01DX009 (ip), vehicle: other 87 % of control

Cc1cc(C)n2c(-c3ccccc3)c(C)c(C(N)=O)c2n1
inactive: [5] 98 % of control | [6] 99 % of control | [7] 100 % of control

O=C(c1ccccc1)N1CCCCC1
inactive: [11] 95 % of control | [12] 100 % of control | dose: 100.0 mg/kg/injection, schedule: Q04DX003 (ip), vehicle: saline 110 % of control | [13] 100 % of control | dose: 200.0 mg/kg/injection, schedule: Q04DX003 (ip), vehicle: saline 110 % of control

C=CS(=O)(=O)c1ccc(C)cc1
inactive: dose: 1.56 mg/kg/injection, schedule: Q01DX009 (ip), vehicle: Klucel (hydroxypropylcellulose) (HPC) 104 % of control | dose: 3.13 mg/kg/injection, schedule: Q01DX009 (ip), vehicle: Klucel (hydroxypropylcellulose) (HPC) 99 % of control and 105 % of control | dose: 6.25 mg/kg/injection, schedule: Q01DX009 (ip), vehicle: Klucel (hydroxypropylcellulose) (HPC) 121 % of control and 95 % of control | [14] 99 % of control and 111 % of control

CC(C)(C)C1=NC(c2ccccc2)N2C(c3ccccc3)NC(c3ccccc3)C1C2c1ccccc1 (configuration not stated)
inactive: [2] 100 % of control | [3] 93 % of control | [4] 91 % of control

CN(C)CCC(=O)c1ccc([N+](=O)[O-])cc1
inactive: [1] 94 % of control | [2] 113 % of control | [3] 108 % of control | [4] 106 % of control

Cc1ccc2oc(-c3nnc(N)s3)cc(=O)c2c1
inactive: [15] 100 % of control | [16] 100 % of control | [17] 93 % of control

NC(=S)N/N=C\c1nc2ccccc2c2ccccc12
inactive: dose: 50.0 mg/kg/injection, schedule: Q04DX002 (ip), vehicle: Klucel (hydroxypropylcellulose) (HPC) 99 % of control | dose: 100.0 mg/kg/injection, schedule: Q04DX002 (ip), vehicle: Klucel (hydroxypropylcellulose) (HPC) 95 % of control | dose: 200.0 mg/kg/injection, schedule: Q04DX002 (ip), vehicle: Klucel (hydroxypropylcellulose) (HPC) 94 % of control

Clc1ccc(/C=C/c2ccnnc2)cc1
inactive: [11] 106 % of control | [12] 106 % of control | [13] 91 % of control

CCOC(=O)Cc1cc2c(cc1C)CN=C(OCC)C2
inactive: dose: 6.25 mg/kg/injection, schedule: Q01DX009 (ip), vehicle: distilled water + Tween-80 100 % of control | [8] 103 % of control | [9] 94 % of control | [10] 91 % of control | dose: 100.0 mg/kg/injection, schedule: Q01DX009 (ip), vehicle: distilled water + Tween-80 91 % of control | dose: 200.0 mg/kg/injection, schedule: Q01DX009 (ip), vehicle: distilled water + Tween-80 90 % of control | dose: 400.0 mg/kg/injection, schedule: Q01DX009 (ip), vehicle: distilled water + Tween-80 100 % of control

OC1OCC2CC3c4cc5c(cc4CCN3CC21)OCO5 (configuration not stated)
inactive: dose: 0.63 mg/kg/injection, schedule: Q01DX009 (ip), vehicle: distilled water + Tween-80 103 % of control | dose: 1.25 mg/kg/injection, schedule: Q01DX009 (ip), vehicle: distilled water + Tween-80 109 % of control | dose: 2.5 mg/kg/injection, schedule: Q01DX009 (ip), vehicle: distilled water + Tween-80 108 % of control | dose: 5.0 mg/kg/injection, schedule: Q01DX009 (ip), vehicle: distilled water + Tween-80 100 % of control | dose: 10.0 mg/kg/injection, schedule: Q01DX009 (ip), vehicle: distilled water + Tween-80 103 % of control | dose: 20.0 mg/kg/injection, schedule: Q01DX009 (ip), vehicle: distilled water + Tween-80 103 % of control

COc1ccc(/C=N/OC(=S)NC2CCCCC2)cc1OC
inactive: [15] 102 % of control | [16] 94 % of control | [17] 93 % of control

CC1=NN(c2ccccc2)C(=O)/C1=C1\SS/C(=C2\C(=O)N(c3ccccc3)N=C2C)S1
inactive: [14] 100 % of control | dose: 25.0 mg/kg/injection, schedule: Q01DX009 (ip), vehicle: Klucel (hydroxypropylcellulose) (HPC) 103 % of control | dose: 50.0 mg/kg/injection, schedule: Q01DX009 (ip), vehicle: Klucel (hydroxypropylcellulose) (HPC) 121 % of control and 90 % of control | dose: 100.0 mg/kg/injection, schedule: Q01DX009 (ip), vehicle: Klucel (hydroxypropylcellulose) (HPC) 92 % of control and 94 % of control | dose: 200.0 mg/kg/injection, schedule: Q01DX009 (ip), vehicle: Klucel (hydroxypropylcellulose) (HPC) 102 % of control

Cc1cc(N2C(=O)CSC2=S)ccc1Cl
inactive: dose: 50.0 mg/kg/injection, schedule: Q01DX009 (ip), vehicle: suspension in saline 105 % of control | dose: 100.0 mg/kg/injection, schedule: Q01DX009 (ip), vehicle: suspension in saline 99 % of control | dose: 200.0 mg/kg/injection, schedule: Q01DX009 (ip), vehicle: suspension in saline 106 % of control
